Format in all cases: cell-based
The test system of experiment [1] is MRSA (ATCC 33591). The experiment can be described thus: Broth microdilution MIC, MRSA ATCC 33591. Particulars: Staphylococcus aureus. The protocol: (§1) General information—Biological Assays. Methicillin-resistant and methicillin sensitive Staphylococcus aureus (MRSA and MSSA respectively) strains were obtained from the Laboratory of Professor Christian Melander (NCSU) (ATCC BAA 44 and 33591) and Dr. Jessica Gilbertie (ATCC 25923). Bacteria were kept in frozen stocks on glycerol at −80° C. until use. Bacteria was streaked onto tryptic-soy agar for colony isolation. Mueller-Hinton broth (MHB, 211443-BD), tryptic soy broth (TSB, Remel: R455052) and D-glucose (CAS: 492-62-6) were purchased from Fisher Scientific. Tryptic soy agar (TSA, cat. #22091) and Linezolid (cat. #P70014) were purchased from Sigma-Aldrich. Bacteria for biofilm inhibition were cultured overnight in TSB-G (tryptic soy broth with 0.5% glucose supplement) in 96 well plates. All assays were run in duplicate and repeated at least two separate times for MIC assays and at least three separate times for biofilm inhibition. All compounds were dissolved in molecular biology grade DMSO as 10 mM stock solutions. Optical densities were measured using a Thermo Scientific Genesys 20 spectrophotometer. Data for biofilm inhibition were collected using a BioTek ELx808 Microplate Reader. All graphs were generated and analyzed using GraphPad Prism 7.
Broth microdilution method for determination of minimum inhibitory concentrations. As prescribed by the Clinical and Laboratory Standards Institute (CLSI) M07-A8, Vol. 29 (2) MSSA (ATCC 25923) and MRSA (ATCC BAA 44 and 33591) was grown in MHB for 6-8 h; this culture was used to inoculate fresh MHB (5×10^5 CFU/mL). The resulting bacterial suspension was aliquoted (1 mL) into 1.5 mL Eppendorf tubes and compound was added from a 10 mM DMSO stock to achieve the desired initial starting concentration (typically 128 μg/mL). Linezolid (from a 10 mM DMSO stock) was used as a positive control. Inoculated media not treated with compound served as the negative control. The MIC was determined by microbroth dilution following the CLSI guidelines. The MIC was defined as the lowest concentration of antibiotic with no visible growth. The plate was sealed and incubated under stationary conditions at 37° C.
The antimicrobial activity of Compounds 1-15 was assessed initially against MSSA (ATCC 25923) and MRSA (ATCC 33591) strains. It was observed that almost all these compounds precipitated in aqueous solution at concentrations equal or higher than 8-16 μg/mL. In order to obtain preliminary results on the antimicrobial activity for these compounds, the standard conditions of the antimicrobial assays used where modified to favor the water solubility of these compounds.
(Dilution methods test growth across graded concentrations, often in twofold steps.)

Experiment [2] deals with MRSA (ATCC BAA 44) biofilm. The experiment can be described thus: Inhibition of MRSA biofilm formation (crystal violet). Particulars: Staphylococcus aureus, 24 h, Table 1. How it is done: as §1
Determination of the inhibitory effect of test compounds on MRSA biofilm formation. Inhibition assays were performed using a procedure adapted from S. A. Rogers and C. Melander, Angew. Chem. Int. Ed., 2008, 47, 5229-5231, which is hereby incorporated herein by reference. Briefly, the inhibition assays were performed by subculturing an overnight culture of MRSA (ATCC BAA 44) to an OD600 of 0.01 in TSB-G (tryptic soy broth with a 0.5% glucose supplement). Stock solutions of predetermined concentrations of the test compound were then made using the inoculated TSB-G. These stock solutions were aliquoted (100 μL) into the wells of the 96-well microtiter plate. Sample plates were sealed then incubated for 24 h at 37° C. After incubation, the medium was discarded from the wells and the plates were washed 2× with PBS. Prior to staining, plates were left to dry at ambient temperature for 2-3 h. Plates were then stained with 0.1% solution of crystal violet (CV, 125 μL) and then incubated at ambient temperature for 30 min. Plates were washed with PBS again and the remaining stain was solubilized with 99% ethanol (200 μL). A sample of solubilized CV stain (110 μL) from each well was transferred to the corresponding wells of a polystyrene microtiter dish. Biofilm biomass was quantified by measuring the OD540 of each well and inhibition was calculated as a percentage of the control (no compound); a negative control lane wherein no biofilm was formed served as a background and was subtracted out. Percent inhibition was then plotted against concentration in Prism 7. Each of the four experiments were plotted separately and S15 analyzed by a normalized nonlinear regression. The graphs on the following pages were generated from an average of the total data set. Biofilm data represent four separate experiments, with each experiment performed in duplicate (average of 8 data points for each concentration tested, unless otherwise noted).

Experiment [3] concerns S. aureus 29213. The experiment can be described thus: Broth microdilution MIC, S. aureus 29213. Particulars: Staphylococcus aureus.
In experiment [4] the test system is MSSA (ATCC 25923). The experiment can be described thus: Broth microdilution MIC, MSSA ATCC 25923. Particulars: Staphylococcus aureus; Tables 2-4; standardized conditions; read-out: MIC (S. aureus 25923).
[5] abbreviates: Table 1, Compounds 1-15, preliminary data, modified non-standard conditions (pH 9), solubility-limited.
[6] abbreviates: Tables 3-4, standardized conditions, read-out: MIC (S. aureus 29213).
Setting [7] is: Tables 2-4, standardized conditions.
Setting [8] is: Table 2, standardized conditions, read-out: MIC (S. aureus 25913).

Values after ≈ are worked out from the molar mass of the structure shown. Where two headings read alike, the source gives them in different places.

With `CCC1C(c2ccc(C(F)(F)F)cc2)=C(O)C(=O)N1Cc1ccc(OC)cc1OC` (stereo not drawn) [Compound 15], the minimal inhibitory concentration (MIC) in experiment [1] (setting [5]) was > 128 µg/mL. Further, in experiment [2], the inhibition at 5 µM is 63% and the inhibition at 40 µM amounted to 57%.

In experiment [1] (setting [5]), `CCCCCN1C(=O)C(O)=C(c2ccc(C(F)(F)F)cc2)C1CC` (stereo not drawn) [Compound 11, 5-Ethyl-3-hydroxy-1-pentyl-4-(4-(trifluoromethyl)phenyl)-1,5-dihydro-2H-pyrrol-2-one] displayed an MIC of 16 µg/mL (≈ 46.9 µM). In experiment [2], the inhibition at 5 µM was determined as 58% and the inhibition at 40 µM turned out to be 63%.

In the case of `CCC1C(c2ccc(C(F)(F)F)cc2)=C(O)C(=O)N1c1cccnc1` (stereo not drawn) [Compound 6, 5-Ethyl-3-hydroxy-1-(pyridin-3-yl)-4-(4-(trifluoromethyl)phenyl)-1,5-dihydro-2H-pyrrol-2-one], the MIC in experiment [1] (setting [5]) is > 128 µg/mL. Also, in experiment [2], the inhibition at 5 µM is 4% and the inhibition at 40 µM came out at 31%.

The compound `CC1C(c2ccc(C(F)(F)F)cc2)=C(O)C(=O)N1c1ccccc1` (stereo not drawn) [Compound 2, 3-Hydroxy-5-methyl-1-phenyl-4-(4-(trifluoromethyl)phenyl)-1,5-dihydro-2H-pyrrol-2-one] returned a minimum inhibitory concentration (MIC) in experiment [1] (setting [5]) of 32 µg/mL (≈ 96 µM). In experiment [2], the inhibition at 5 µM was -26% and the inhibition at 40 µM was determined as 72%.

Turning to `CCC1C(c2ccc(C(F)(F)F)cc2)=C(O)C(=O)N1c1ccc(OC)c(OC)c1` (stereo not drawn) [Compound 5, 1-(3,4-Dimethoxyphenyl)-5-ethyl-3-hydroxy-4-(4-(trifluoromethyl)phenyl)-1,5-dihydro-2H-pyrrol-2-one], in experiment [1] (setting [5]), the minimal inhibitory concentration (MIC) is > 128 µg/mL. Also, in experiment [2], the inhibition at 5 µM stood at 17% and the inhibition at 40 µM is 70%.

Regarding `CCC1C(c2ccc(C(F)(F)F)cc2)=C(O)C(=O)N1c1ccccc1` (stereo not drawn) [Compound 1, 5-Ethyl-3-hydroxy-1-phenyl-4-(4-(trifluoromethyl)phenyl)-1,5-dihydro-2H-pyrrol-2-one], the MIC in experiment [1] (setting [5]) came to 16 µg/mL (≈ 46.1 µM). Moreover, in experiment [2], the inhibition at 5 µM came out at 5% and the inhibition at 40 µM stood at 85%.

As to `CCC1C(c2ccc(C(F)(F)F)cc2)=C(O)C(=O)N1c1ccc(F)cc1` (stereo not drawn) [Compound 4, 5-Ethyl-1-(4-fluorophenyl)-3-hydroxy-4-(4-(trifluoromethyl)phenyl)-1,5-dihydro-2H-pyrrol-2-one], the minimal inhibitory concentration (MIC) in experiment [1] (setting [5]) was 16 µg/mL (≈ 43.8 µM). In experiment [2], the inhibition at 5 µM came out at 22% and the inhibition at 40 µM was 81%.

`CCC1C(c2ccc(C(F)(F)F)cc2)=C(O)C(=O)N1CCc1ccccc1` (stereo not drawn) [Compound 8, 5-Ethyl-3-hydroxy-1-phenethyl-4-(4-(trifluoromethyl)phenyl)-1,5-dihydro-2H-pyrrol-2-one]: in experiment [1] (setting [5]), the MIC is > 128 µg/mL. In addition, in experiment [2], the inhibition at 5 µM worked out at 23% and the inhibition at 40 µM is 46%.

As for `CCC1C(c2ccc(C(F)(F)F)cc2)=C(O)C(=O)N1c1ccc(Br)cc1` (stereo not drawn) [Compound 3, 1-(4-Bromophenyl)-5-ethyl-3-hydroxy-4-(4-(trifluoromethyl)phenyl)-1,5-dihydro-2H-pyrrol-2-one], 32 µg/mL (≈ 75.1 µM) was the least that counted as inhibitory in experiment [1] (setting [5]) (MIC). For the same compound, in experiment [2], the inhibition at 5 µM was 34% and the inhibition at 40 µM was 72%.

Consider `CCC1C(c2ccc(C(F)(F)F)cc2)=C(O)C(=O)N1c1ccc(Br)cc1` (stereo not drawn) [Compound 42, 1-(4-Bromophenyl)-5-ethyl-3-hydroxy-4-(4-(trifluoromethyl)phenyl)-1,5-dihydro-2H-pyrrol-2-one], for which the minimal inhibitory concentration (MIC) in experiment [3] (setting [6]), in experiment [1] (setting [7]) and in experiment [4] was > 128 µg/mL in each case.

For the compound `O=C1C(O)=C(c2ccc(C(F)(F)F)cc2)CN1c1ccccc1` [Compound 9, 3-Hydroxy-1-phenyl-4-(4-(trifluoromethyl)phenyl)-1,5-dihydro-2H-pyrrol-2-one], the minimal inhibitory concentration (MIC) in experiment [1] (setting [5]) was > 128 µg/mL. Further, in experiment [2], the inhibition at 5 µM turned out to be 26% and the inhibition at 40 µM stood at 8%.

With `CCC1C(c2ccc(C(F)(F)F)cc2)=C(O)C(=O)N1CCNCCNCCNCCN` (stereo not drawn) [Compound 34], the MIC in experiment [3] (setting [6]), in experiment [1] (setting [7]) and in experiment [4] was > 128 µg/mL each time.

In the case of `CCC1C(c2ccc(C(F)(F)F)cc2)=C(O)C(=O)N1CCN1C(=O)C(O)=C(c2ccc(C(F)(F)F)cc2)C1CC` (stereo not drawn) [Compound 25, 1,1′-(Ethane-1,2-diyl)bis(5-ethyl-3-hydroxy-4-(4-(trifluoromethyl)phenyl)-1,5-dihydro-2H-pyrrol-2-one)], the minimum inhibitory concentration (MIC) in experiment [3] (setting [8]), in experiment [1] (setting [7]) and in experiment [4] was > 128 µg/mL throughout.

In the case of `O=C1C(O)=C(c2ccc(C(F)(F)F)cc2)C([C@@H](O)c2ccccc2)N1c1ccc(Br)cc1` (stereo partly drawn) [Compound 48, 1-(4-Bromophenyl)-3-hydroxy-5-((S)-hydroxy(phenyl)methyl)-4-(4-(trifluoromethyl)phenyl)-1,5-dihydro-2H-pyrrol-2-one], the minimum inhibitory concentration (MIC) is 16 µg/mL (≈ 31.7 µM) in experiment [3] (setting [6]), 32 µg/mL (≈ 63.5 µM) in experiment [1] (setting [7]) and 32 to 64 µg/mL (≈ 63.5 to 127 µM) in experiment [4].

In the case of `CCC1C(c2ccc(C(F)(F)F)cc2)=C(O)C(=O)N1CCCNCCCCNCCCN` (stereo not drawn) [Compound 24, 1-(3-((4-((3-Aminopropyl)amino)butyl)amino)propyl)-5-ethyl-3-hydroxy-4-(4-(trifluoromethyl)phenyl)-1,5-dihydro-2H-pyrrol-2-one], the MIC in experiment [3] (setting [8]) is 16 µg/mL (≈ 35 µM); in experiment [1] (setting [7]), 16 µg/mL (≈ 35 µM); in experiment [4], 8 µg/mL (≈ 17.5 µM).

As for `CCC1C(c2ccc(C(F)(F)F)cc2)=C(O)C(=O)N1CCN` (stereo not drawn) [Compound 16, 1-(2-Aminoethyl)-5-ethyl-3-hydroxy-4-(4-(trifluoromethyl)phenyl)-1,5-dihydro-2H-pyrrol-2-one], the minimum inhibitory concentration (MIC) in experiment [3] (setting [8]) was 128 µg/mL (≈ 407 µM); in experiment [1] (setting [7]), > 128 µg/mL; in experiment [4] it was 128 µg/mL (≈ 407 µM).

With `CCC1C(c2ccc(C(F)(F)F)cc2)=C(O)C(=O)N1CCSCCN1C(=O)C(O)=C(c2ccc(C(F)(F)F)cc2)C1CC` (stereo not drawn) [Compound 37, 1,1′-(thiobis(ethane-2,1-diyl))bis(5-ethyl-3-hydroxy-4-(4-(trifluoromethyl)phenyl)-1,5-dihydro-2H-pyrrol-2-one)], the minimum inhibitory concentration (MIC) in experiment [3] (setting [6]), in experiment [1] (setting [7]) and in experiment [4] was > 256 µg/mL throughout.

For the compound `CCC1C(c2ccc(C(F)(F)F)cc2)=C(O)C(=O)N1CCOCCOCCOCCN` (stereo not drawn) [Compound 22, 1-(2-(2-(2-(2-Aminoethoxy)ethoxy)ethoxy)ethyl)-5-ethyl-3-hydroxy-4-(4-(trifluoromethyl)phenyl)-1,5-dihydro-2H-pyrrol-2-one], the minimal inhibitory concentration (MIC) in experiment [3] (setting [8]), in experiment [1] (setting [7]) and in experiment [4] was > 128 µg/mL in each case.

Consider `O=C1C(O)=C(c2ccc(C(F)(F)F)cc2)C([C@H](O)c2ccccc2)N1c1ccc(F)cc1` (stereo partly drawn) [Compound 53, 1-(4-Fluorophenyl)-3-hydroxy-5-((R)-hydroxy(phenyl)methyl)-4-(4-(trifluoromethyl)phenyl)-1,5-dihydro-2H-pyrrol-2-one], for which the results for the minimal inhibitory concentration (MIC) in experiment [3] (setting [6]), in experiment [1] (setting [7]) and in experiment [4] were 128 µg/mL (≈ 289 µM), 128 µg/mL (≈ 289 µM) and 16 µg/mL (≈ 36.1 µM), respectively.

Usually MIC stands for the least concentration at which growth counts as inhibited. In general, inhibition refers to the change of the read-out against control, counted positive when it falls.

These data come from patent publication US20250326718A1, “4-PHENYL-2-PYRROLIDINONES AND METHODS OF USING THEREOF” (North Carolina State University, priority 2022, published 2025).
